Values after ≈ are worked out from the molar mass of the structure shown.
In the case of `CCSS(=O)CC` (stereo unspecified), the solubility is reported as 796 mM (≈ 110000 µg/mL).

Compound `CCCCCCCCCCCNC(=O)c1cccnc1` has a solubility (25 °C) of 0.941 mM (≈ 260 µg/mL).

Compound `O=C(O)c1ccccc1C(=O)c1ccc(Cl)cc1` has a solubility (20 °C) of 1.92 mM (≈ 500 µg/mL).

With `CCCC(O)CC(C)C` (stereo unspecified) the solubility (25 °C) was 12.4 mM (≈ 1610 µg/mL).

`CCOC(C)C(=O)C=O` (stereo unspecified) gave a solubility of 699 mM (≈ 91000 µg/mL).

Work on `CC(C)C(=O)Oc1ccc([N+](=O)[O-])cc1` yielded a solubility (23 °C) of 0.11 mM (≈ 23 µg/mL).

For `CCOC(=O)C(CC(=O)O)=C(c1ccccc1)c1ccccc1`, the solubility was 6.44 mM (≈ 2000 µg/mL).

With `O=C(O)c1ccc([N+](=O)[O-])c2cccnc12` the solubility (25 °C) was 0.683 mM (≈ 149 µg/mL).

`Cc1ccc2[nH]c(=O)c(=O)[nH]c2c1` showed a solubility (20 °C) of 0.908 mM (≈ 160 µg/mL).

Compound `CCOC(=S)SC(C)C(=O)O` (stereo unspecified) has a solubility (25 °C) of 35.6 mM (≈ 6910 µg/mL).

For `O=C(O)Cc1c[nH]c(=O)[nH]c1=O`, the solubility (30 °C) was 23.5 mM (≈ 4000 µg/mL).

With `O=C(O)C(Br)=C(Br)I` the solubility (20 °C) was 95.6 mM (≈ 34000 µg/mL).

`O=C(OCCCO)c1ccccc1` gave a solubility of 55.5 mM (≈ 10000 µg/mL).

`Cc1nc(Br)[nH]c1[N+](=O)[O-]` gave a solubility (25 °C) of 16.2 mM (≈ 3330 µg/mL).

For `C1CCC2NCCCC2C1` (stereo unspecified), the solubility (25 °C) was 82.6 mM (≈ 11500 µg/mL).

For `COc1ccc(C(=O)O)cc1C(=O)O`, the solubility (20 °C) was 0.765 mM (≈ 150 µg/mL).

In the case of `NC(N)=NCCS(=O)(=O)O`, the solubility (21 °C) is reported as 233 mM (≈ 39000 µg/mL).

Compound `CCCC(Br)C(=O)NC(N)=O` (stereo unspecified) has a solubility of 37.3 mM (≈ 8330 µg/mL).

With `O=C(O)c1c(Cl)ccc2ccccc12` the solubility (20 °C) was 4.84 mM (≈ 1000 µg/mL).

`CC1(C)OC(=O)c2ccccc21` gave a solubility (25 °C) of 13.5 mM (≈ 2200 µg/mL).

`C[C@@H](N)C(C)(C)C` gave a solubility (25 °C) of 9690 mM (≈ 980000 µg/mL).

In the case of `CC(C)C(CC(=O)O)C(=O)O` (stereo unspecified), the solubility (20 °C) is reported as 391 mM (≈ 62700 µg/mL).

`O=C(NCCO)c1cc(O)ccc1O` showed a solubility (25 °C) of 286 mM (≈ 56400 µg/mL).

In the case of `CC(=O)CC(=O)c1ccccc1`, the solubility (25 °C) is reported as 2.36 mM (≈ 383 µg/mL).

`CNc1ncc2nccnc2n1` gave a solubility (20 °C) of 19.4 mM (≈ 3130 µg/mL).

`Cc1ccc(S(=O)(=O)Oc2ccccc2C)cc1` gave a solubility (25 °C) of 0.114 mM (≈ 30 µg/mL).

Compound `O=C(O)C=C(CC(=O)O)C(=O)O` has a solubility (20 °C) of 2450 mM (≈ 427000 µg/mL).

`COc1ccc(C(=O)CCC(=O)O)cc1` gave a solubility (25 °C) of 86.5 mM (≈ 18000 µg/mL).

Compound `C[C@H](NC(=O)c1ccccc1)C(=O)O` (racemic) has a solubility of 20.7 mM (≈ 4000 µg/mL).

Work on `CCc1c[nH]c(=O)nc1N` yielded a solubility (25 °C) of 95.6 mM (≈ 13300 µg/mL).

In the case of `CC(C)OC(=O)C(C)(C)O`, the solubility is reported as 1030 mM (≈ 150000 µg/mL).

With `CC(C)(OC1CCCCC1)C(=O)O` the solubility (20 °C) was 83.2 mM (≈ 15500 µg/mL).

In the case of `CCCCCOP(=O)(OCC)OCC`, the solubility (25 °C) is reported as 33.4 mM (≈ 7500 µg/mL).

Compound `CC(C)(NC(N)=O)C(=O)O` has a solubility (20 °C) of 68.4 mM (≈ 10000 µg/mL).

With `CCCC[C@H](NC(C)=O)C(=O)O` (racemic) the solubility (25 °C) was 307 mM (≈ 53100 µg/mL).

With `CCCCCNC(=O)C(C)O` (stereo unspecified) the solubility (25 °C) was 414 mM (≈ 66000 µg/mL).

Compound `CN1C(=O)COc2ccccc21` has a solubility (20 °C) of 7.17 mM (≈ 1170 µg/mL).

`CCOC(=O)c1[nH]c(C=O)c(CC)c1C` gave a solubility (20 °C) of 1.91 mM (≈ 400 µg/mL).

`CC(=O)Nc1ccc(C)cc1` gave a solubility (25 °C) of 8.04 mM (≈ 1200 µg/mL).

In the case of `CC1OC(=O)c2cc([N+](=O)[O-])ccc21` (stereo unspecified), the solubility (25 °C) is reported as 2.42 mM (≈ 468 µg/mL).

For `O=C(O)c1ccc(F)c([N+](=O)[O-])c1`, the solubility (25 °C) was 26.2 mM (≈ 4860 µg/mL).

Source: the OPERA property sets (Mansouri et al. 2018)
